pIC50: −log10 of the molar value.
target: HIV1 protease (Human immunodeficiency virus type 1 group M subtype B, UniProt P04585); experiment: inhibition of HIV1 protease; type: biochemical; details: A. Mono-ol (X = H); read-out: IC50 against HIV1 protease, A. Mono-ol (X = H)
Experimental: ^a The IC50 against HIV1 protease was measured according to the
method described in U.S. Pat. No. 5,354,866, issued October 11, 1994.

| pIC50 | Compound |
| --- | --- |
| > 9.00 | CC(C)[C@H](NC(=O)CSc1ncccn1)C(=O)N[C@@H](Cc1ccccc1)C[C@H](O)[C@H](Cc1ccccc1)NC(=O)[C@@H](NC(=O)CSc1ncccn1)C(C)C [Example 10A] |
| > 9.00 | CC(C)[C@H](NC(=O)Cc1csc(N)n1)C(=O)N[C@@H](Cc1ccccc1)C[C@H](O)[C@H](Cc1ccccc1)NC(=O)[C@@H](NC(=O)Cc1csc(N)n1)C(C)C [Example 8A] |
| > 9.00 | COc1cc(CC(=O)N[C@H](C(=O)N[C@@H](Cc2ccccc2)C[C@H](O)[C@H](Cc2ccccc2)NC(=O)[C@@H](NC(=O)Cc2cc(OC)c(OC)c(OC)c2)C(C)C)C(C)C)cc(OC)c1OC [Example 9A] |
| > 9.00 | CC(C)[C@H](NC(=O)CC1NC(=O)NC1=O)C(=O)N[C@@H](Cc1ccccc1)C[C@H](O)[C@H](Cc1ccccc1)NC(=O)[C@@H](NC(=O)CC1NC(=O)NC1=O)C(C)C (stereo partly shown) [Example 7A] |

Reference: patent publication US5877334A, “Intermediates useful in solid phase synthesis method” (Abbott Laboratories, priority 1996, dated 1999)
